Results: paper PMC7156458, “Synthetic biology based construction of biological activity-related library of fungal decalin-containing diterpenoid pyrones” (Nature Communications, 2020)

Biological target: Aβ42 (Homo sapiens, UniProt P05067)
Test: Th-T (thioflavin-T) assay of Aβ42 aggregation
Assay type: biochemical
Conditions: for Th-T fluorescence, mean of three wells: Aβ42 aggregation time course

Chain of Aβ42 (P05067 672-713): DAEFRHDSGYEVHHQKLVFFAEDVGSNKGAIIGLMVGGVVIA

C=C1CCC2C(C)(CCC=C(C)C)C(O)CCC2(C)C1Cc1c(OC)oc(C)c(C(=O)OC)c1=O (stereo not drawn) [Compound 14]
delay of the nucleation phase: no delay | elongation of Aβ42: partly suppressed the elongation of Aβ42 | first Th-T assay result (Aβ42 (10 μM) ± DPPs (20 μM), room temperature): suppressed Aβ42 | Th-T fluorescence, mean of three wells (reading M117): 1.655 | Th-T fluorescence, mean of three wells (reading M118): 1.6572 | Th-T fluorescence, mean of three wells (reading M119): 1.678 | Th-T fluorescence, mean of three wells (reading M120): 1.679 | Th-T fluorescence, mean of three wells (reading M121): 1.668 | Th-T fluorescence, mean of three wells (reading M122): 1.683 | Th-T fluorescence, mean of three wells (reading M123): 1.681 | Th-T fluorescence, mean of three wells (reading M124): 1.6777 | Th-T fluorescence, mean of three wells (reading M125): 1.687 | Th-T fluorescence, mean of three wells (reading M126): 1.688 | Th-T fluorescence, mean of three wells (reading M127): 1.689 | Th-T fluorescence, mean of three wells (reading M128): 1.7014 | Th-T fluorescence, mean of three wells (reading M129): 1.701 | Th-T fluorescence, mean of three wells (reading M130): 1.6991 | Th-T fluorescence, mean of three wells (Fig. 7a) (column suffix _10, measurement M19): 1.991 | Th-T fluorescence, mean of three wells (Fig. 7a) (column suffix _10, measurement M20): 2.087 | Th-T fluorescence, mean of three wells (Fig. 7a) (column suffix _10, measurement M21): 2.17 | Th-T fluorescence, mean of three wells (Fig. 7a) (column suffix _10, measurement M22): 2.206 | Th-T fluorescence, mean of three wells (Fig. 7a) (column suffix _10, measurement M23): 2.232 | Th-T fluorescence, mean of three wells (Fig. 7a) (column suffix _10, measurement M24): 2.258 | Th-T fluorescence, mean of three wells (Fig. 7a) (column suffix _10, measurement M25): 2.291 | Th-T fluorescence, mean of three wells (Fig. 7a) (column suffix _10, measurement M26): 2.3072 | Th-T fluorescence, mean of three wells (Fig. 7a) (column suffix _10, measurement M27): 2.333 | Th-T fluorescence, mean of three wells (Fig. 7a) (column suffix _10, measurement M28): 2.3263 | Th-T fluorescence, mean of three wells (Fig. 7a) (column suffix _10, measurement M29): 2.338 | Th-T fluorescence, mean of three wells (Fig. 7a) (column suffix _10, measurement M30): 2.363 | Th-T assay signal, mean of three wells (Fig. 7a) (column suffix _10, reading M1): 0.2293 | Th-T assay signal, mean of three wells (Fig. 7a) (column suffix _10, reading M2): 0.2207 | Th-T assay signal, mean of three wells (Fig. 7a) (column suffix _10, reading M3): 0.2333 | Th-T assay signal, mean of three wells (Fig. 7a) (column suffix _10, reading M4): 0.2495 | Th-T assay signal, mean of three wells (Fig. 7a) (column suffix _10, reading M5): 0.2748 | Th-T assay signal, mean of three wells (Fig. 7a) (column suffix _10, reading M6): 0.3168 | Th-T assay signal, mean of three wells (Fig. 7a) (column suffix _10, reading M7): 0.3327 | Th-T assay signal, mean of three wells (Fig. 7a) (column suffix _10, reading M8): 0.3584 | Th-T assay signal, mean of three wells (Fig. 7a) (column suffix _10, reading M9): 0.3937 | Th-T assay signal, mean of three wells (Fig. 7a) (column suffix _10, reading M10): 0.4248 | Th-T assay signal, mean of three wells (Fig. 7a) (column suffix _10, reading M11): 0.4498 | Th-T assay signal, mean of three wells (Fig. 7a) (column suffix _10, reading M12): 0.5064 | Th-T assay signal, mean of three wells (Fig. 7a) (column suffix _10, reading M13): 0.6552 | Th-T assay signal, mean of three wells (Fig. 7a) (column suffix _10, reading M14): 0.8811 | Th-T assay signal, mean of three wells (Fig. 7a) (column suffix _10, reading M15): 1.163 | Th-T assay signal, mean of three wells (Fig. 7a) (column suffix _10, reading M16): 1.433 | Th-T assay signal, mean of three wells (Fig. 7a) (column suffix _10, reading M17): 1.668 | Th-T assay signal, mean of three wells (Fig. 7a) (column suffix _10, reading M18): 1.846 | Fig. 7a Th-T reading, mean of three wells (column suffix _10, reading M85): 2.79 | Fig. 7a Th-T reading, mean of three wells (column suffix _10, reading M86): 2.788 | Fig. 7a Th-T reading, mean of three wells (column suffix _10, reading M87): 2.811 | Fig. 7a Th-T reading, mean of three wells (column suffix _10, reading M88): 2.833 | Fig. 7a Th-T reading, mean of three wells (column suffix _10, reading M89): 2.856 | Fig. 7a Th-T reading, mean of three wells (column suffix _10, reading M90): 2.853 | Fig. 7a Th-T reading, mean of three wells (column suffix _10, reading M91): 2.848 | Fig. 7a Th-T reading, mean of three wells (column suffix _10, reading M92): 2.836 | Fig. 7a Th-T reading, mean of three wells (column suffix _10, reading M93): 2.868 | Fig. 7a Th-T reading, mean of three wells (column suffix _10, reading M94): 2.853 | Fig. 7a Th-T reading, mean of three wells (column suffix _10, reading M95): 2.8555 | Fig. 7a Th-T reading, mean of three wells (column suffix _10, reading M96): 2.819 | Fig. 7a Th-T reading, mean of three wells (column suffix _10, reading M97): 2.823 | Fig. 7a Th-T reading, mean of three wells (column suffix _10, reading M98): 2.843 | Fig. 7a Th-T reading, mean of three wells (column suffix _10, reading M99): 2.862 | Fig. 7a Th-T reading, mean of three wells (column suffix _10, reading M100): 2.849 | Fig. 7a Th-T reading, mean of three wells (column suffix _10, reading M101): 2.83 | Fig. 7a Th-T reading, mean of three wells (column suffix _10, reading M102): 2.84 | Fig. 7a Th-T reading, mean of three wells (column suffix _10, reading M103): 2.843 | Fig. 7a Th-T reading, mean of three wells (column suffix _10, reading M104): 2.878 | Fig. 7a Th-T reading, mean of three wells (column suffix _10, reading M105): 2.894 | Fig. 7a Th-T reading, mean of three wells (column suffix _10, reading M106): 2.859 | Th-T fluorescence, mean of three wells (Fig. 7a) (column suffix _20, measurement M19): 1.051 | Th-T fluorescence, mean of three wells (Fig. 7a) (column suffix _20, measurement M20): 1.16 | Th-T fluorescence, mean of three wells (Fig. 7a) (column suffix _20, measurement M21): 1.235 | Th-T fluorescence, mean of three wells (Fig. 7a) (column suffix _20, measurement M22): 1.279 | Th-T fluorescence, mean of three wells (Fig. 7a) (column suffix _20, measurement M23): 1.352 | Th-T fluorescence, mean of three wells (Fig. 7a) (column suffix _20, measurement M24): 1.3992 | Th-T fluorescence, mean of three wells (Fig. 7a) (column suffix _20, measurement M25): 1.478 | Th-T fluorescence, mean of three wells (Fig. 7a) (column suffix _20, measurement M26): 1.556 | Th-T fluorescence, mean of three wells (Fig. 7a) (column suffix _20, measurement M27): 1.595 | Th-T fluorescence, mean of three wells (Fig. 7a) (column suffix _20, measurement M28): 1.672 | Th-T fluorescence, mean of three wells (Fig. 7a) (column suffix _20, measurement M29): 1.711 | Th-T assay signal, mean of three wells (Fig. 7a) (column suffix _20, reading M1): 0.305 | Th-T assay signal, mean of three wells (Fig. 7a) (column suffix _20, reading M2): 0.2567 | Th-T assay signal, mean of three wells (Fig. 7a) (column suffix _20, reading M3): 0.2803 | Th-T assay signal, mean of three wells (Fig. 7a) (column suffix _20, reading M4): 0.2741 | Th-T assay signal, mean of three wells (Fig. 7a) (column suffix _20, reading M5): 0.2931 | Th-T assay signal, mean of three wells (Fig. 7a) (column suffix _20, reading M6): 0.3005 | Th-T assay signal, mean of three wells (Fig. 7a) (column suffix _20, reading M7): 0.3085 | Th-T assay signal, mean of three wells (Fig. 7a) (column suffix _20, reading M8): 0.3015 | Th-T assay signal, mean of three wells (Fig. 7a) (column suffix _20, reading M9): 0.3254 | Th-T assay signal, mean of three wells (Fig. 7a) (column suffix _20, reading M10): 0.3505 | Th-T assay signal, mean of three wells (Fig. 7a) (column suffix _20, reading M11): 0.3712 | Th-T assay signal, mean of three wells (Fig. 7a) (column suffix _20, reading M12): 0.4273 | Th-T assay signal, mean of three wells (Fig. 7a) (column suffix _20, reading M13): 0.4951 | Th-T assay signal, mean of three wells (Fig. 7a) (column suffix _20, reading M14): 0.5807 | Th-T assay signal, mean of three wells (Fig. 7a) (column suffix _20, reading M15): 0.6574 | Th-T assay signal, mean of three wells (Fig. 7a) (column suffix _20, reading M16): 0.7497 | Th-T assay signal, mean of three wells (Fig. 7a) (column suffix _20, reading M17): 0.8453 | Th-T assay signal, mean of three wells (Fig. 7a) (column suffix _20, reading M18): 0.9743 | Fig. 7a Th-T reading, mean of three wells (column suffix _20, reading M85): 1.842 | Fig. 7a Th-T reading, mean of three wells (column suffix _20, reading M86): 1.882 | Fig. 7a Th-T reading, mean of three wells (column suffix _20, reading M87): 1.842 | Fig. 7a Th-T reading, mean of three wells (column suffix _20, reading M88): 1.862 | Fig. 7a Th-T reading, mean of three wells (column suffix _20, reading M89): 1.848 | Fig. 7a Th-T reading, mean of three wells (column suffix _20, reading M90): 1.855 | Fig. 7a Th-T reading, mean of three wells (column suffix _20, reading M91): 1.818 | Fig. 7a Th-T reading, mean of three wells (column suffix _20, reading M92): 1.795 | Fig. 7a Th-T reading, mean of three wells (column suffix _20, reading M93): 1.7999 | Fig. 7a Th-T reading, mean of three wells (column suffix _20, reading M94): 1.805 | Fig. 7a Th-T reading, mean of three wells (column suffix _20, reading M95): 1.783 | Fig. 7a Th-T reading, mean of three wells (column suffix _20, reading M96): 1.793 | Fig. 7a Th-T reading, mean of three wells (column suffix _20, reading M97): 1.78 | Fig. 7a Th-T reading, mean of three wells (column suffix _20, reading M98): 1.799 | Fig. 7a Th-T reading, mean of three wells (column suffix _20, reading M99): 1.789 | Fig. 7a Th-T reading, mean of three wells (column suffix _20, reading M100): 1.781
